In PubChem BioAssay AID248 (DTP/NCI, 2004):
Values joined by “and” are separate entries in the source; they are usually repeats but may differ in a detail not shown here. Equal values may be shown once. Inconclusive results and toxic doses are left out. No stated cut-off is given here; in the data, active means T/C of 150% or more; inactive means T/C below 125%.

Tested on: L1210 leukemia ip in BDF1 mice, survival T/C
Assay: NCI In Vivo Anticancer Drug Screen. Data for tumor model L1210 Leukemia (intraperitoneal) in B6D2F1 (BDF1) mice
Conditions: endpoint: mean survival time, higher = longer survival
How it was run: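 Tumor was transplanted into mice, which were then dosed with test compound or vehicle alone. Survival was recorded for each group, and the treated figure was expressed relative to the control figure.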

[1] = dose: 100.0 mg/kg/injection, schedule: Q04DX002 (ip), vehicle: Klucel (hydroxypropylcellulose) (HPC)
[2] = dose: 50.0 mg/kg/injection, schedule: Q04DX003 (ip), vehicle: saline
[3] = dose: 100.0 mg/kg/injection, schedule: Q04DX003 (ip), vehicle: saline
[4] = dose: 200.0 mg/kg/injection, schedule: Q04DX003 (ip), vehicle: saline
[5] = dose: 50.0 mg/kg/injection, schedule: Q01DX001 (ip), vehicle: saline
[6] = dose: 100.0 mg/kg/injection, schedule: Q01DX001 (ip), vehicle: saline
[7] = dose: 200.0 mg/kg/injection, schedule: Q01DX001 (ip), vehicle: saline
[8] = dose: 400.0 mg/kg/injection, schedule: Q01DX001 (ip), vehicle: saline
[9] = dose: 100.0 mg/kg/injection, schedule: Q01DX009 (ip), vehicle: Klucel (hydroxypropylcellulose) (HPC)
[10] = dose: 100.0 mg/kg/injection, schedule: Q04DX002 (ip), vehicle: saline with Tween-80
[11] = dose: 200.0 mg/kg/injection, schedule: Q04DX002 (ip), vehicle: saline with Tween-80
[12] = dose: 400.0 mg/kg/injection, schedule: Q04DX002 (ip), vehicle: saline with Tween-80
[13] = dose: 100.0 mg/kg/injection, schedule: Q04DX003 (ip), vehicle: saline with Tween-80
[14] = dose: 200.0 mg/kg/injection, schedule: Q04DX003 (ip), vehicle: saline with Tween-80
[15] = dose: 400.0 mg/kg/injection, schedule: Q04DX003 (ip), vehicle: saline with Tween-80
[16] = dose: 100.0 mg/kg/injection, schedule: Q01DX009 (ip), vehicle: saline with Tween-80
[17] = dose: 200.0 mg/kg/injection, schedule: Q01DX009 (ip), vehicle: saline with Tween-80
[18] = dose: 400.0 mg/kg/injection, schedule: Q01DX009 (ip), vehicle: saline with Tween-80
[19] = dose: 100.0 mg/kg/injection, schedule: Q01DX001 (ip), vehicle: Klucel (hydroxypropylcellulose) (HPC)
[20] = dose: 200.0 mg/kg/injection, schedule: Q01DX001 (ip), vehicle: Klucel (hydroxypropylcellulose) (HPC)
[21] = dose: 400.0 mg/kg/injection, schedule: Q01DX001 (ip), vehicle: Klucel (hydroxypropylcellulose) (HPC)
[22] = dose: 100.0 mg/kg/injection, schedule: Q01DX001 (ip), vehicle: carboxymethylcellulose (CMC)
[23] = dose: 200.0 mg/kg/injection, schedule: Q01DX001 (ip), vehicle: carboxymethylcellulose (CMC)
[24] = dose: 400.0 mg/kg/injection, schedule: Q01DX001 (ip), vehicle: carboxymethylcellulose (CMC)
[25] = dose: 100.0 mg/kg/injection, schedule: Q04DX003 (ip), vehicle: Klucel (hydroxypropylcellulose) (HPC)
[26] = dose: 200.0 mg/kg/injection, schedule: Q04DX002 (ip), vehicle: Klucel (hydroxypropylcellulose) (HPC)
[27] = dose: 200.0 mg/kg/injection, schedule: Q04DX003 (ip), vehicle: Klucel (hydroxypropylcellulose) (HPC)
[28] = dose: 400.0 mg/kg/injection, schedule: Q04DX002 (ip), vehicle: Klucel (hydroxypropylcellulose) (HPC)

Measured: T/C

COc1cc(Cn2cccc2/C=N/NC(N)=S)c([N+](=O)[O-])cc1OC
inactive: dose: 25.0 mg/kg/injection, schedule: Q04DX002 (ip), vehicle: Klucel (hydroxypropylcellulose) (HPC) 100 % of control | dose: 50.0 mg/kg/injection, schedule: Q04DX002 (ip), vehicle: Klucel (hydroxypropylcellulose) (HPC) 104 % of control | [1] 93 % of control

Nc1ccc(CCc2ccccc2)c(C(=O)O)c1
inactive: [2] 104 % of control | [3] 110 % of control | [4] 96 % of control

Cn1ncc2[nH]c(=O)n(O)c(=O)c21
inactive: [5] 93 % of control | [6] 96 % of control | [7] 100 % of control | [8] 100 % of control

CNC(=O)Oc1ccccc1C(N)=O
inactive: dose: 25.0 mg/kg/injection, schedule: Q01DX009 (ip), vehicle: Klucel (hydroxypropylcellulose) (HPC) 110 % of control | dose: 50.0 mg/kg/injection, schedule: Q01DX009 (ip), vehicle: Klucel (hydroxypropylcellulose) (HPC) 96 % of control | [9] 96 % of control and 92 % of control

O=[N+]([O-])c1cccc(-c2cnc(-c3ccccc3)cc2-c2ccccc2O)c1
inactive: [10] 94 % of control | [11] 94 % of control | [12] 102 % of control

Cc1cc(C)c(C(=O)Oc2ccc3ccccc3c2)c(C)c1
inactive: [13] 92 % of control | [14] 92 % of control | [15] 86 % of control

CSc1ccc(NC(=O)OCC2CC3C=CC2C3)cc1 (stereo not drawn)
inactive: [16] 96 % of control and 92 % of control | [10] 89 % of control | [13] 95 % of control | [17] 94 % of control and 110 % of control | [11] 89 % of control | [14] 93 % of control | [18] 94 % of control and 100 % of control | [12] 111 % of control | [15] 98 % of control

Cc1ccc(N)cc1[N+](=O)[O-]
inactive: [19] 105 % of control | [20] 95 % of control | [21] 95 % of control

[N-]=[N+]=C1N=CN=C1c1ncnn1Cc1ccccc1
inactive: dose: 5.0 mg/kg/injection, schedule: Q01DX001 (ip), vehicle: other 105 % of control | dose: 10.0 mg/kg/injection, schedule: Q01DX001 (ip), vehicle: other 97 % of control | dose: 20.0 mg/kg/injection, schedule: Q01DX001 (ip), vehicle: other 94 % of control | dose: 40.0 mg/kg/injection, schedule: Q01DX001 (ip), vehicle: other 94 % of control | dose: 80.0 mg/kg/injection, schedule: Q01DX001 (ip), vehicle: other 101 % of control

CN(C(=O)COc1ccccc1)c1ccc([N+](=O)[O-])cc1
inactive: [16] 95 % of control | [17] 93 % of control | [18] 95 % of control

O=S1(=O)CC23CCC2(COC3)C1 (stereo not drawn)
inactive: dose: 12.5 mg/kg/injection, schedule: Q04DX003 (ip), vehicle: saline 97 % of control | dose: 25.0 mg/kg/injection, schedule: Q04DX003 (ip), vehicle: saline 94 % of control | [2] 92 % of control

O=C(O)CC(Br)CBr (stereo not drawn)
inactive: [6] 94 % of control | [7] 103 % of control

CCc1ccc(N=Nc2ccccc2)cc1
inactive: [22] 105 % of control | [23] 96 % of control | [24] 105 % of control

O=C(O)C1C2C=CC(C2)C1C(=O)O (stereo not drawn)
inactive: [16] 97 % of control | [17] 96 % of control | [18] 98 % of control

C=CCc1ccc(OC(=O)NC(C)C)c(OC)c1
inactive: [19] 89 % of control | [9] 97 % of control and 88 % of control | [1] 98 % of control and 100 % of control | [25] 93 % of control | [20] 101 % of control | dose: 200.0 mg/kg/injection, schedule: Q01DX009 (ip), vehicle: Klucel (hydroxypropylcellulose) (HPC) 111 % of control and 91 % of control | [26] 98 % of control and 112 % of control | [27] 97 % of control | [21] 100 % of control | dose: 400.0 mg/kg/injection, schedule: Q01DX009 (ip), vehicle: Klucel (hydroxypropylcellulose) (HPC) 88 % of control | [28] 112 % of control and 119 % of control | dose: 400.0 mg/kg/injection, schedule: Q04DX003 (ip), vehicle: Klucel (hydroxypropylcellulose) (HPC) 101 % of control

C=C1C=C(C)N(C(C)=O)CCN1C(C)=O
inactive: dose: 100.0 mg/kg/injection, schedule: Q01DX009 (ip), vehicle: saline 95 % of control | dose: 200.0 mg/kg/injection, schedule: Q01DX009 (ip), vehicle: saline 92 % of control | dose: 400.0 mg/kg/injection, schedule: Q01DX009 (ip), vehicle: saline 90 % of control

C[N+](C)(CCl)C1CCCCC1
inactive: dose: 75.0 mg/kg/injection, schedule: Q01DX001 (ip), vehicle: saline 107 % of control

C=C1CC(c2ccccc2)(c2cccs2)OC1=O (stereo not drawn)
inactive: [25] 98 % of control | [27] 96 % of control

Nc1ncnc2c1ncn2CCC(O)c1ccccc1 (stereo not drawn)
inactive: [5] 95 % of control | [6] 93 % of control | [7] 95 % of control | [8] 93 % of control

Cc1ccc(S(=O)(=O)OC2CCCCC2c2ccccc2C)cc1 (stereo not drawn)
inactive: dose: 100.0 mg/kg/injection, schedule: Q01DX001 (ip), vehicle: steriod suspending solution 105 % of control | dose: 200.0 mg/kg/injection, schedule: Q01DX001 (ip), vehicle: steriod suspending solution 112 % of control | dose: 400.0 mg/kg/injection, schedule: Q01DX001 (ip), vehicle: steriod suspending solution 98 % of control

Nc1ccc2c(c1)Cc1cc(N)c(Br)cc1-2
inactive: [22] 105 % of control | [23] 109 % of control | [24] 94 % of control

N#CC1c2ccccc2CCN1C(=O)c1ccccc1 (stereo not drawn)
inactive: [22] 98 % of control | [23] 98 % of control | [24] 93 % of control

COC(=O)CNC(=O)C1NC(C)(C)SC1(C)C (stereo not drawn)
inactive: [6] 97 % of control | [7] 101 % of control | [8] 95 % of control

C#CC1(NC(=S)Nc2cccc(OC)c2)CCCCC1
inactive: [1] 94 % of control | [26] 109 % of control | [28] 96 % of control

CCOC(=O)C1c2cccc(O)c2C=CN1C(C)=O (stereo not drawn)
inactive: [3] 101 % of control | [4] 97 % of control | dose: 400.0 mg/kg/injection, schedule: Q04DX003 (ip), vehicle: saline 104 % of control

CCC[CH2][Sn]([CH2]CCC)([CH2]CCC)[N]=C=S
inactive: dose: 0.39 mg/kg/injection, schedule: Q01DX001 (ip), vehicle: saline with Tween-80 89 % of control | dose: 0.78 mg/kg/injection, schedule: Q01DX001 (ip), vehicle: saline with Tween-80 93 % of control | dose: 1.56 mg/kg/injection, schedule: Q01DX001 (ip), vehicle: saline with Tween-80 105 % of control
